In brackets after ≈: the same amount, converted by molar mass. Several values for one entry are separate records, joined by “and”; a condition that tells them apart may be missing. Equal entries are not always repeated.

For series [1], the system named is CHO-7W cells expressing wildtype human APP. Briefly: sAPPβ and Aβ1-42 production in CHO-7W cells (AlphaLISA). The format is cell-based, Chinese hamster. As to conditions: in words. On the procedure:
Culture Media was collected and frozen. Media was assayed using an AlphaLISA for Aβ1-42 (Perkin Elmer catalog # AL276C), sAPPα (R&D Systems catalog # AF1168 conjugated with Perkin Elmer acceptor beads catalog # 6772001 + 2B3 antibody from IBL catalog # 11088 biotinylated), and sAPPβ (Perkin Elmer AL276-acceptor + IBL catalog # 18957 biotinylated). For the assay, 2 μL of diluted or undiluted sample was added to a 384 well plate, followed by 2 μL of the respective antibody mixture. This was incubated for 1 h. Afterwards, 2 μL of donor beads was added to each well, followed by a 30-min incubation in the dark, after which the signal was read.

The next series is described as follows: Pharmacokinetics in mice. It counts as in vivo, mouse. The following applies: SQ injection of 10 mg/Kg, in words; 10 mg/kg. On the procedure: Wildtype or non-transgenic (NTg) C57Bl6 mice or Sprague-Dawley rats were dosed by oral (gavage) or subcutaneous (SQ) injection at 10 or 30 mg/kg, and animals were euthanized 1, 2, 6, and 8 h after administration by ketamine/xylazine over-anesthesia, in rats, CSF was also collected, followed by transcardial collection of blood for isolation of plasma and saline perfusion. Brain tissue was collected post-mortem for assessment of compound levels and biomarkers.
Analyses of compound levels in PK studies were performed in the UCLA Pasarow Mass Spectrometry Lab (PMSL; Julian Whitelegge, Ph.D., Director). Tissues were homogenized in a bead beater using 5 vol of ice-cold 80 % acetonitrile (1/5; mg of brain/μL of 80 % ACN). Plasma analytes were extracted using 4 vol of ice-cold acetonitrile (1/4; μL of plasma/μL of 100 % ACN). Solutions were clarified by centrifugation (16,000×g, 5 min) and the supernatants were transferred to new tubes and lyophilized. Samples were reconstituted in 100 μL of 50/50/0.1 (Water/Acetonitrile/Formic Acid) prior to analysis via liquid chromatography-tandem mass spectrometry (LC-MS/MS).
An internal standard (IS) was added to every sample to account for compound loss during sample processing. Standards were made in drug naïve plasma and tissue lysates with increasing amounts of analyte (S1, S2: 0 pmol/S3, S4: 1 pmol/S5, S6: 10 pmol/S7, S8: 100 pmol, S9, S10: 1000 pmol). The standard curve was made by plotting the known amount of analyte per standard vs. the ratio of measured chromatographic peak areas corresponding to the analyte over that of the IS (analyte/IS). The trendline equation was then used to calculate the absolute concentrations of each compound in plasma and tissue.
The targeted LC-MS/MS assay was developed using the multiple reaction monitoring (MRM) acquisition method on a 6460 triple quadrupole mass spectrometer (Agilent Technologies) coupled to a 1290 Infinity HPLC system (Agilent Technologies) with a Phenomenex analytical column (Kinetex 1.7 μm C18 100 Å 100 × 2.1 mm). The HPLC method utilized a mixture of solvent A (99.9/0.1 Water/Formic Acid) and solvent B (99.9/0.1 Acetonitrile/Formic Acid) and a gradient was use for the elution of the compounds (min/%B: 0/1, 3/1, 19/99, 20/1, 30/1). Two fragment ions were monitored at specific LC retention times to ensure specificity and accurate quantification in the complex biological samples. The normalized chromatographic peak areas were determined by taking the ratio of measured chromatographic peak areas corresponding to the compound over that of the internal standard (Analyte/IS).
The Tmax, Cmax, brain-to-plasma ratios and brain levels were then calculated using PK Solutions software (SummitPK).

For a further series, the target named is BACE1 (Homo sapiens, UniProt P56817). Nature of the series: P5-P5′ BACE1 inhibition assay. The format is biochemical. As to conditions: for IC50: cell-free, read-out: BACE1 IC50 (P5-P5′ assay; BACE1-APP).
Another series addresses eAPP (Homo sapiens, UniProt P05067). Nature of the series: APP binding by surface plasmon resonance (SPR).
Another series addresses T1, BACE1 cleavage of NRG1 (Homo sapiens, UniProt P56817).
T1 construct: with or without full-length wild-type BACE1; expressed in transfected cells; host or cells: HEK293
Nature of the series: SEAP-NRG assay. It counts as cell-based. The following applies: at ∼1 μM, in words.

The nature of series [2]: Liver microsome stability assay. As to conditions: human liver microsomes. It counts as in vitro ADME. Here is the method:
(§1) Liver microsome stability assay
(§2) A 1 µL sample of 1 mM FAH65 and its enantiomers in 100% DMSO was added to 1 mL of 0.5 mg/mL human liver microsomes (Thermo Fisher Scientific, Cat# HMMPL) in PBS pH 7.4, 2 mM NADPH, and 2 mM MgCl2; and incubated at 37 °C for 120 min. Aliquots (50 µL) of the microsome solution were taken […]
quenching solution containing an internal standard. Solutions were clarified by centrifugation (16K x g, 5 min) and supernatants transferred to new tubes and lyophilized. Samples were reconstituted in 100 µL of 50/50/0.1 water/acetonitrile/formic acid prior to analysis via LC-MS/MS.
Normalized chromatographic peak areas were plotted at each time point and the half-life (t1/2) of compound in liver microsomes was determined by using the trendline equation to calculate the time at which compound abundance was 50% of that at timepoint 0 (T0).
(§3) One µL FAH65 and its enantiomers (1 mM in 100% DMSO) was added to human peripheral blood plasma (Cat#70039, Stemcell Technologies Inc) diluted 2-fold in PBS (1000 µL, pH 7.4) and incubated […]
and 180 min, and added to a 200 µL 100% acetonitrile reaction quenching solution containing an internal standard. Solutions were clarified by centrifugation (16K x g, 5 min) and supernatants were transferred to new tubes and lyophilized. […]

In series [3] the target is T2, human serum albumin (HSA) (Homo sapiens, UniProt P02768).
T2 construct: purchased Chiral Technologies H15L-109
Briefly: Human serum albumin (HSA) binding assay. The format is in vitro ADME. On the procedure: Human serum albumin (HSA) binding assay
The liquid chromatography-ultraviolet/visible spectroscopy (LC-UV/Vis) assay was performed on a 1290 Infinity HPLC system (Agilent Technologies) with an HPLC column containing immobilized HSA
([…]® CAN, Chiral Technologies, Cat#H15L-109, 5 µm 50 x 4 mm). The HPLC method utilized an isocratic gradient containing 100% 6.7 mM phosphate buffer saline (pH 7.4). The retention time of the compound (tr) and injection peak were recorded.
The percent protein binding (P) was calculated using the following equations:
K’ = (tr – tm) / tm; P = 100 x [K’ / (K’ + 1)] […]
The […]
(§4) KIAM = (tr – t0) / t0; Pm = (KIAM / MW4) x 1010
(§5) Compounds with a Pm >0.85 are predicted to be BBB permeable (CNS+) at pH 7.4.
Brain Tissue Binding Assay […]
Cat#23235). Brain homogenate was diluted to 20 mg/mL in PBS (pH 7.4) and added to Slide-A-Lyzer™ MINI Dialysis Devices, 10K MWCO dialysis cups (Thermo Fisher Scientific, Cat#PI88401) in a 48-well plate containing PBS (500 µL; pH 7.4). 1 µL of 1 mM compound was added to the brain homogenate (final concentration: 2 µM compound, 0.5% DMSO) and incubated on a rocker for 4.5 hours at 37 °C. 50 µL of brain homogenate (within the dialysis cup) and PBS (within the 48-well plate) were transferred to new microcentrifuge tubes containing 200 µL of quenching reagent (100% acetonitrile) containing internal […]
standard. […]

Another series can be described thus: Kinetic solubility assay. It counts as physicochemical. As to conditions: PBS pH 7.4, 37 °C. Here is the method: FAH65 and its enantiomers at 10 mM in 100% DMSO was diluted in PBS pH 7.4 to 100, 10, 1, and 0.1 µM; plus, a vehicle-only control. The solutions were incubated at 37 °C for 90 min and centrifuged at 16K x g for 5 min. An aliquot of each supernatant was analyzed by LC-MS/MS. A standard curve was generated by plotting the known amount of analyte per standard in DMSO vs. chromatographic peak […]
Kinetic solubility (µM) was calculated using the trendline equation with maximum chromatographic peak area observed in the aqueous sample. (Table S3)
as §1, §2
quenching solution containing an internal standard. Solutions were clarified by centrifugation (16K x g, 5 min) and supernatants transferred to new tubes and lyophilized. Samples were reconstituted in 100 µL of 50/50/0.1 water/acetonitrile/formic acid prior to analysis via LC-MS/MS. […]
as §3

A short description of series [4]: Brain tissue binding assay. It counts as in vitro ADME, mouse. The following applies: brain homogenate, 2 µM compound. On the procedure: The […]
as §4, §5
Brain Tissue Binding Assay
Brain tissue was homogenized in PBS (pH 7.4) (1: 3 weight(mg)/volume(µL)) and the protein concentration determined using the Micro BCA™ Pr otein Assay Kit (Thermo Fisher Scientific, Cat#23235). Brain homogenate was diluted to 20 mg/mL in PBS (pH 7.4) and added to Slide-A-Lyzer™ MINI Dialysis Devices, 10K MWCO dialysis cups (Thermo Fisher Scientific, Cat#PI88401) in a 48-well plate containing PBS (500 µL; pH 7.4). 1 µL of 1 mM compound was added to the brain homogenate (final concentration: 2 µM compound, 0.5% DMSO) and incubated on a rocker for 4.5 hours at 37 °C. 50 µL of brain homogenate (within the dialysis cup) and PBS (within the 48-well plate) were transferred to new microcentrifuge tubes containing 200 µL of quenching reagent (100% acetonitrile) containing internal standard. Solutions were clarified by centrifugation (16,000 x g, 5 min) and the supernatants were transferred to new tubes and lyophilized. Samples were reconstituted in 100 µL of 50/50/0.1 (Water/Acetonitrile/Formic Acid) prior to analysis via LC-MS/MS.
The % of the unbound drug was calculated using the following equation: fubound = [normalized peak area in buffer side / normalized peak area in brain side] x 100

The nature of the next series: Plasma stability assay. The format is in vitro ADME. As to conditions: human plasma, 37 °C, 180 min. On the procedure:
The effects of candidate ASBIs on BACE2 activity was assessed using the R&D Systems BACE2 activity assay kit (Catalog #: 4097-AS and ES010) formatted from to the manufacturers. For the assay, 4 μL of assay buffer was added to each well, followed by 2 μL of BACE2 diluted in assay buffer to 10 ng/µL.
Then, 2 μL of inhibitor, at the appropriate concentrations were added to the wells and incubated for 30 minutes at room temperature. For all dilutions of inhibitor, drug stock solutions of 10 mM in DMSO were diluted to 50 μM in water; subsequent dilutions were in 0.5% DMSO. Afterwards, 2 μL of fluorogenic BACE2 substrate, diluted to 50 μM in assay buffer, were added to each well, after which the signal generated was read every 30 minutes at 25 °C for 2 hr (Fig S2).
FAH65 and its enantiomers at 10 mM in 100% DMSO was diluted in PBS pH 7.4 to 100, 10, 1, and 0.1 µM; plus, a vehicle-only control. The solutions were incubated at 37 °C for 90 min and centrifuged at 16K x g for 5 min. An aliquot of each supernatant was analyzed by LC-MS/MS. […]
Kinetic solubility (µM) was calculated using the trendline equation with maximum chromatographic peak area observed in the aqueous sample. […]
([…]® CAN, Chiral Technologies, Cat#H15L-109, 5 µm 50 x 4 mm). […] The retention time of the compound (tr) and injection peak were recorded.
The percent protein binding (P) was calculated using the following equations: […]

Series [5] can be described thus: Pilot PK of FAH65 vs. verubecestat in rats. The following applies: oral gavage, 30 mg/kg. The format is in vivo, rat.

BACE1, sequence (P56817 46-501): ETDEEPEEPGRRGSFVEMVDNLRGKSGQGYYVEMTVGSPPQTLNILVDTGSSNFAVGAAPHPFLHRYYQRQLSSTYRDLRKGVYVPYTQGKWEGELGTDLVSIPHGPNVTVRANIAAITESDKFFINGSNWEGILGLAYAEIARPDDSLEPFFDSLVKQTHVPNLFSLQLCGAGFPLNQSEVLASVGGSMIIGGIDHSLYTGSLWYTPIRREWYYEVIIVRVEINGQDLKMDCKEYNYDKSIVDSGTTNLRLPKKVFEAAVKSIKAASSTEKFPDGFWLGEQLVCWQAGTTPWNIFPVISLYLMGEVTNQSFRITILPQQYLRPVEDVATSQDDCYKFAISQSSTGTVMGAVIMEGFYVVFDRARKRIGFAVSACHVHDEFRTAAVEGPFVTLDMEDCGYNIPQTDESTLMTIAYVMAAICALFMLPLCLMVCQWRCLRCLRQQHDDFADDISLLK
T2 sequence (P02768 25-609): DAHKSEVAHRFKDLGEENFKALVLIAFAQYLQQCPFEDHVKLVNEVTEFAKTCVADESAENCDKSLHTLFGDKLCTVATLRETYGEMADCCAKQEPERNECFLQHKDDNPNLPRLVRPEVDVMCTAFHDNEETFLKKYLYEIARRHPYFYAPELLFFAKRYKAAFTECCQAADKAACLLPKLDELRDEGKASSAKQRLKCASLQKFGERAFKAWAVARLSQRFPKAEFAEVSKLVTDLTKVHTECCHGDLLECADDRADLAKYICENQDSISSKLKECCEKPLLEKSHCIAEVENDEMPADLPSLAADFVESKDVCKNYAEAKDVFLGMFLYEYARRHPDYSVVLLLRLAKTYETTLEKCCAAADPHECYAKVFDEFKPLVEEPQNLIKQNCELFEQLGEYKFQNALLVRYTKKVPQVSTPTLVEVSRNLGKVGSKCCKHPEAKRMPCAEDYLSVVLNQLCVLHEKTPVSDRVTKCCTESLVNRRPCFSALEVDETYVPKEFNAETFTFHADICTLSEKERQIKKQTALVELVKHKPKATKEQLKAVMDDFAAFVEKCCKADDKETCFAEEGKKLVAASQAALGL
eAPP, sequence (P05067 18-701): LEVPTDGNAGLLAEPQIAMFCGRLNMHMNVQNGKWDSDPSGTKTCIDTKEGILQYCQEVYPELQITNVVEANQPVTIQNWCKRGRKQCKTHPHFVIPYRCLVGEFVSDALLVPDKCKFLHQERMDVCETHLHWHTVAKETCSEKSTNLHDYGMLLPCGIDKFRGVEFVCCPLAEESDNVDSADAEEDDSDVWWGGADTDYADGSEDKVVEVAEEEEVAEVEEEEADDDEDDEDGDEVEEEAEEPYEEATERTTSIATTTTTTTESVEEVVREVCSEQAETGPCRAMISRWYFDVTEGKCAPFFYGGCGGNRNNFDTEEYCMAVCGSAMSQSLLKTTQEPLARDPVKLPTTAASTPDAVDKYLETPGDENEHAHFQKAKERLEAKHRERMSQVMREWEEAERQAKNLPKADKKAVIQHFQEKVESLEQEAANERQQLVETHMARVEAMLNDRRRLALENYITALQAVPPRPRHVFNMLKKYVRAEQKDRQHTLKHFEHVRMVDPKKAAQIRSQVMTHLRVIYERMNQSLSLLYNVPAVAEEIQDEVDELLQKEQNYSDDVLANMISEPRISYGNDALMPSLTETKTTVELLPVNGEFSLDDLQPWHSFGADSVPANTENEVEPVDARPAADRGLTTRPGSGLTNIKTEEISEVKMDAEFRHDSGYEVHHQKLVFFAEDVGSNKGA
T1 sequence (P56817 46-501): as the sequence (P56817 46-501) above
Experimental for BACE1 cleavage of NRG1: A cDNA construct encoding a human placental secreted alkaline phosphatase (SEAP)-NRG1 (pAPtag5-NRG1-β1) fusion protein was transfected in human embryonic kidney (HEK293) cells in a 6-well format with or without full-length wild-type BACE1 using Lipofectamine 2000 (Invitrogen) as described previously [27]. After transfection, the medium was replaced with DMEM containing the test compound at 10, 5, 1, 0.1, and 0.01 ​μM as well as 10 ​% heat-inactivated fetal bovine serum (FBS), then incubated for 24 ​h. SEAP activity was measured in the conditioned medium.
Experimental for eAPP: The interaction of FAH3, 17 and 65 were evaluated using the SPR protocol described previously in Descamps et al., [26].
For these pilot experiments eAPP as described in Descamps et al (26) is crosslinked to a the CM5 Biacore chip. FAH3 at various concentration was used in the flow through the chip, and the plasmon resonance signal was determined using a Biacore T100. The raw data uncorrected for contribution of running buffer is fit to equilibrium binding data and corrected for the contribution of the running buffer to
For FAH17 and FAH65-APP binding was determined using SPR to determine competition with BSA that non-specifically binds to the eAPP-Biacore chip.

In the case of `CN1C(=O)C(c2ccccc2)(c2cc(F)cc(F)c2)N=C1N` (centres unmarked) [FAH1], in series [1] (5 μM), the Aβ42 entry is “decreased”. For the same compound, the brain permeability result in “Pharmacokinetics in mice” is reported as “brain permeable”. For the same compound, the IC50 at BACE1 is 5000 to 10000 nM and ~10000 nM.
On eAPP, `Cc1cc(C2(c3cc(F)cc(F)c3)N=C(N)N(C)C2=O)ccc1OC(F)F` (centres unmarked) [FAH3] gave a Kd of about 300 nM. Also, the “inhibition of SEAP-NRG cleavage” value at BACE1 cleavage of NRG1 is reported as “no SEAP-NRG cleavage”. In series [1] (1 μM), the Aβ1-42 production result was “decreased”. The brain permeability result in “Pharmacokinetics in mice” is recorded as “had brain permeability”. On BACE1 (at ∼1 μM, read-out: inhibition of BACE1 cleavage of APP), the inhibition at 1 µM worked out at 50%. Further, the IC50 on BACE1 is 1000 to 4000 nM and ~1000 nM and 500 to 1000 nM.
Turning to `Cc1cc(C2(c3cccc(-c4cncnc4)c3)N=C(N)N(C)C2=O)ccc1OC(F)F` (stereo not drawn) [FAH65E(+)], the “Microsomal stability T1/2” value in series [2] was found to be 0.4 h. Further, in series [3], the “Plasma (HSA) binding, funbound” value worked out at 0.8%. Also, in “Kinetic solubility assay”, the solubility (kinetic) at 90 min is reported as 87 µM (≈ 36.8 µg/mL). Also, on BACE1 (in words), the “Activity in the P5-P5′ assay” value is “inactive”. Further, in [4], the “Brain tissue binding, funbound” value is 6.2%. Besides, the “Plasma stability t1/2” value in the series “Plasma stability assay” is over 3 h.
As for `CN1C(=N)N[C@](C)(c2cc(NC(=O)c3ccc(F)cn3)ccc2F)CS1(=O)=O` [Veru, verubecestat, reference compound], the highest concentration (Cmax) in series [5] (both sexes, Sprague-Dawley, rat, brain) was 157 ng/g. Further, in series [5], the “time of brain Cmax” value is recorded as 2 h.

(Values after PMC12491701, “Discovery of an APP-selective BACE1 inhibitor for Alzheimer's disease” (Neurotherapeutics, 2025).)
